ChEMBL document CHEMBL1250543, “Potential application of thymidylate kinase in nucleoside analogue activation in Plasmodium falciparum” (Bioorg Med Chem, 2010)

Experiments:
Plasmodium falciparum [1] = assay: Antimalarial activity against Plasmodium falciparum 3D7 after 48 hrs by SYBR green assay; format: functional, organism-based; conditions: 3D7, 48 h
Plasmodium falciparum [2] = assay: Antimalarial activity against Plasmodium falciparum 3D7 at 100 uM by SYBR green assay; format: functional; conditions: read-out: GI

Row | Compound | EC50 (Plasmodium falciparum [1]) | inhibition of growth at 100 µM (Plasmodium falciparum [2])
1 | COC(=O)[C@@H](C)NP(=O)(OC[C@@H]1C=C[C@H](n2cc(C)c(=O)[nH]c2=O)O1)Oc1ccccc1 (stereo partly specified) | > 100 µM | 9%
2 | CCOC(=O)[C@H](NP(=O)(OC[C@@H]1C=C[C@H](n2cc(C)c(=O)[nH]c2=O)O1)Oc1ccccc1)C(C)C (stereo partly specified) | > 100 µM | 18%
3 | Cc1cn([C@H]2C[C@H](N=[N+]=[N-])[C@@H](CO)O2)c(=O)[nH]c1=O [ZIDOVUDINE] | > 100 µM | 0%
4 | COC(=O)[C@@H](C)NP(=O)(OC[C@H]1O[C@@H](n2cc(C)c(=O)[nH]c2=O)C[C@@H]1N=[N+]=[N-])Oc1ccccc1 (stereo partly specified) | 120 µM | 35%
5 | Cc1cn([C@@H]2C[C@H](N=[N+]=[N-])[C@@H](CO)O2)c(=O)[nH]c1=O | > 100 µM | 0%

The next compounds have a lower EC50 (Plasmodium falciparum [1]) than those just listed; values first:

Row | EC50 (Plasmodium falciparum [1]) | Compound | inhibition of growth at 100 µM (Plasmodium falciparum [2])
6 | 67 µM | CCOC(=O)[C@H](NP(=O)(OC[C@H]1O[C@H](n2cc(C)c(=O)[nH]c2=O)C[C@@H]1N=[N+]=[N-])Oc1ccccc1)C(C)C (stereo partly specified) | 78%
7 | 80 µM | CCOC(=O)[C@H](NP(=O)(OC[C@H]1O[C@@H](n2cc(C)c(=O)[nH]c2=O)C[C@@H]1N=[N+]=[N-])Oc1ccccc1)C(C)C (stereo partly specified) | 69%
8 | 66 µM | CCOC(=O)[C@H](NP(=O)(OC[C@H]1O[C@@H](n2cnc3c(=O)[nH]c(N)nc32)C[C@@H]1N=[N+]=[N-])Oc1ccccc1)C(C)C (stereo partly specified) | 80%
